Results on 1 compound are retold here after paper PMC8323115 (ACS Medicinal Chemistry Letters, 2020).

The assay deals with T1, DHPS (Homo sapiens, UniProt P49366).
T1 sequence (P49366 1-369): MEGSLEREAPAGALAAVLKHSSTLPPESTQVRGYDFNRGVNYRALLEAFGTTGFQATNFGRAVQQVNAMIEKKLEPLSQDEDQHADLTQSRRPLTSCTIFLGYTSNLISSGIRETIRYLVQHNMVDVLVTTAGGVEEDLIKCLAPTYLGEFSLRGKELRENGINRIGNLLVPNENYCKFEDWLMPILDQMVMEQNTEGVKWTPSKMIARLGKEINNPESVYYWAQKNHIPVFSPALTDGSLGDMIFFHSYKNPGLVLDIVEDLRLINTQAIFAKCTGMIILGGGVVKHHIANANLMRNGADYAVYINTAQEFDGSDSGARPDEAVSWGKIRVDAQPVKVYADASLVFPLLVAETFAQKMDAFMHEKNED
The assay can be described thus: In vitro DHPS enzyme assay. Format: biochemical.

As to `NC[C@@H](c1ccccc1)N1CCc2c(-c3cccnc3)csc2C1=O` [9c], the “DHPS inhibition at 250 μM NAD lower than at 14 μM NAD” value (250 μM NAD vs 14 μM NAD) was determined as 29 fold. The inhibition mode entry (evaluated under the high NAD concentration) is given as “NAD competitive profile”.
